{"source": "PubChem BioAssay AID1918999", "about": "(Molecular Pharmacology Branch, DTP, NCI, 2023);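 for viability, T/C: compound exposure lasted 7 days; 100% = DMSO vehicle control growth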", "test_system": "556581-035-R-J1-PDC complex spheroid growth", "assay": "Anticancer human tumor 556581-035-R-J1-PDC patient-derived ovarian carcinoma cell line growth inhibition [AhR]", "details": "for IC50: curve of first compound; for viability, T/C: stronger effect = lower value", "in_short": "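Agents were dosed in half-log steps down from roughly clinical Cmax, or from 10 microM where Cmax was unknown, alone and with AhR antagonists. Read-out: percent test/control growth of tumor spheroids containing HUVEC and MSC stromal cells.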"}
{"smiles": "CC(C)CC(NC(=O)C(Cc1ccccc1)NC(=O)c1cnccn1)B(O)O", "note": "(stereo not given) + Cc1cncc(-c2nc(NCCc3c[nH]c4ccccc34)c3ncn(C(C)C)c3n2)c1", "values": [{"measurement": "IC50", "setting": "second compound 0.1 µM", "value": 5.84, "unit": "nM"}, {"measurement": "IC50", "setting": "second compound 0.316 µM", "value": 5.98, "unit": "nM"}, {"measurement": "IC50", "setting": "second compound 1 µM", "value": 6.08, "unit": "nM"}, {"measurement": "IC50", "setting": "second compound 3.16 µM", "value": 5.93, "unit": "nM"}, {"measurement": "IC50", "setting": "second compound 10 µM", "value": 5.16, "unit": "nM"}, {"measurement": "viability, T/C", "setting": "second compound 0.1 µM, first compound 0.000949 µM", "value": 96.7, "unit": "%"}, {"measurement": "viability, T/C", "setting": "second compound 0.1 µM, first compound 0.003 µM", "value": 103, "unit": "%"}, {"measurement": "viability, T/C", "setting": "second compound 0.1 µM, first compound 0.00949 µM", "value": 13.8, "unit": "%"}, {"measurement": "viability, T/C", "setting": "second compound 0.1 µM, first compound 0.03 µM", "value": 0.14, "unit": "%"}, {"measurement": "viability, T/C", "setting": "second compound 0.1 µM, first compound 0.0949 µM", "value": 0.08, "unit": "%"}, {"measurement": "viability, T/C", "setting": "second compound 0.1 µM, first compound 0.3 µM", "value": 0.23, "unit": "%"}, {"measurement": "viability, T/C", "setting": "second compound 0.316 µM, first compound 0.000949 µM", "value": 101, "unit": "%"}, {"measurement": "viability, T/C", "setting": "second compound 0.316 µM, first compound 0.003 µM", "value": 113, "unit": "%"}, {"measurement": "viability, T/C", "setting": "second compound 0.316 µM, first compound 0.00949 µM", "value": 12, "unit": "%"}, {"measurement": "viability, T/C", "setting": "second compound 0.316 µM, first compound 0.03 µM", "value": 1.1, "unit": "%"}, {"measurement": "viability, T/C", "setting": "second compound 0.316 µM, first compound 0.0949 µM", "value": 0.12, "unit": "%"}, {"measurement": "viability, T/C", "setting": "second compound 0.316 µM, first compound 0.3 µM", "value": 1.12, "unit": "%"}, {"measurement": "viability, T/C", "setting": "second compound 1 µM, first compound 0.000949 µM", "value": 106, "unit": "%"}, {"measurement": "viability, T/C", "setting": "second compound 1 µM, first compound 0.003 µM", "value": 110, "unit": "%"}, {"measurement": "viability, T/C", "setting": "second compound 1 µM, first compound 0.00949 µM", "value": 13.4, "unit": "%"}, {"measurement": "viability, T/C", "setting": "second compound 1 µM, first compound 0.03 µM", "value": 0.14, "unit": "%"}, {"measurement": "viability, T/C", "setting": "second compound 1 µM, first compound 0.0949 µM", "value": 0.09, "unit": "%"}, {"measurement": "viability, T/C", "setting": "second compound 1 µM, first compound 0.3 µM", "value": 0.67, "unit": "%"}, {"measurement": "viability, T/C", "setting": "second compound 3.16 µM, first compound 0.000949 µM", "value": 103, "unit": "%"}, {"measurement": "viability, T/C", "setting": "second compound 3.16 µM, first compound 0.003 µM", "value": 105, "unit": "%"}, {"measurement": "viability, T/C", "setting": "second compound 3.16 µM, first compound 0.00949 µM", "value": 12.7, "unit": "%"}, {"measurement": "viability, T/C", "setting": "second compound 3.16 µM, first compound 0.03 µM", "value": 1.05, "unit": "%"}, {"measurement": "viability, T/C", "setting": "second compound 3.16 µM, first compound 0.0949 µM", "value": 0.7, "unit": "%"}, {"measurement": "viability, T/C", "setting": "second compound 3.16 µM, first compound 0.3 µM", "value": 2.06, "unit": "%"}, {"measurement": "viability, T/C", "setting": "second compound 10 µM, first compound 0.000949 µM", "value": 89.9, "unit": "%"}, {"measurement": "viability, T/C", "setting": "second compound 10 µM, first compound 0.003 µM", "value": 87.8, "unit": "%"}, {"measurement": "viability, T/C", "setting": "second compound 10 µM, first compound 0.00949 µM", "value": 7.45, "unit": "%"}, {"measurement": "viability, T/C", "setting": "second compound 10 µM, first compound 0.03 µM", "value": 0.99, "unit": "%"}, {"measurement": "viability, T/C", "setting": "second compound 10 µM, first compound 0.0949 µM", "value": 0.21, "unit": "%"}, {"measurement": "viability, T/C", "setting": "second compound 10 µM, first compound 0.3 µM", "value": 1.28, "unit": "%"}]}
